One test deals with E. coli DH10B recipient. Briefly: CLSI broth microdilution MIC, E. coli DH10B recipient. In kind it is cell-based. Conditions: Escherichia coli, DH10BRECIPIENT, read-out: MIC. The protocol:
(§1) Four compounds, including Compound No. 8 of the present application (RX-04D) were tested against (i) multiresistant Enterobacteriaceae and Acinetobacter with carbapenemases; (ii) Enterobacteriaceae with MCR-1; and (iii) P. aeruginosa with altered efflux (see Tables 4 and 5). In this case, MCR-1 is relevant because its activity reduces the negative charge of lipopolysaccharides, potentially affecting binding of poly-basic molecules such as the compounds tested herein, as well as polymyxins.
(§2) MICs of the four tested compounds and comparators (amikacin, cefepime, colistin, meropenem and tigecyline) were determined by CLSI broth microdilution using pre-prepared plates (Trek Diagnostic Systems) (CLSI Approved Standard M7-A10). Carbapenemase and mcr-1 genes were detected by PCR or sequencing. Efflux levels in P. aeruginosa isolates were inferred by interpretive reading of antibiogram data.
A general note: In broth dilution the organism is exposed to a series of concentrations in liquid medium.

The subject of test [1] is E. coli DH10B mcr-1 transformant. The test is described as follows: CLSI broth microdilution MIC, E. coli DH10B mcr-1 transformant. In kind it is cell-based. Conditions: Escherichia coli. Here is the method:
as §1, §2

Test [2] relates to Enterobacteriaceae (n=68). The test is described as follows: CLSI broth microdilution MIC, Enterobacteriaceae panel. In kind it is cell-based. Here is the method:
as §1, §2

A further test relates to CPE (n=36). Briefly: CLSI broth microdilution MIC, carbapenemase producers (CPE). In kind it is cell-based, Enterobacteriaceae. To be noted: 35/36 (97%) for RX-04A. The protocol: as §1, §2
The subject of test [3] is Enterobacteriaceae with MCR-1 (MCR-1 isolates, n=14). Briefly: CLSI broth microdilution MIC, MCR-1 isolates. In kind it is cell-based. Conditions: all MCR-1 isolates (n=14). Here is the method: as §1, §2
Test [4] deals with A. baumannii isolates (n=10). The test is described as follows: CLSI broth microdilution MIC, A. baumannii. To be noted: for MIC: Acinetobacter baumannii, A. baumannii. In kind it is cell-based. The protocol: as §1, §2
A further test concerns P. aeruginosa (n=20). Briefly: CLSI broth microdilution MIC, P. aeruginosa. In kind it is cell-based. To be noted: for MIC: Pseudomonas aeruginosa. Here is the method: as §1, §2

≈ marks a conversion by molar mass, not a printed value. Where two headings read alike, the source gives them in different places.

On to `C[C@H](N)CCCc1cc(OC(F)(F)F)c(F)c(-c2cc3cn(-c4ccc([C@@H]5CCC[C@@H](CCNC(=N)N)N5)cc4)c(=O)nc3[nH]2)c1` [RX-04A], for which the MIC is 0.25 µg/mL (≈ 0.389 µM) with E. coli DH10B recipient; 0.25 µg/mL (≈ 0.389 µM) in test [1]; 0.25 to 2 µg/mL (≈ 0.389 to 3.11 µM) in test [2] (67/68 (>98%) of Enterobacteriaceae, read-out: MICs); 1 to 2 µg/mL (≈ 1.56 to 3.11 µM) in test [2] (Enterobacteriaceae, summary, read-out: MICs mostly); 1 to 2 µg/mL (≈ 1.56 to 3.11 µM) in test [4] (7/10 values, read-out: MICs); 1 to 2 µg/mL (≈ 1.56 to 3.11 µM) in test [4] (summary, read-out: MICs mostly). Moreover, the MIC in the test on P. aeruginosa (n=20) (19/20 (95%) P. aeruginosa isolates, read-out: MICs) lay in the range of 1 to 4 µg/mL (≈ 1.56 to 6.22 µM); in the test with P. aeruginosa (n=20) (P. aeruginosa, summary, read-out: MICs mostly), 1 to 4 µg/mL (≈ 1.56 to 6.22 µM). Further, the “peak of unimodal MIC distribution” value in test [2] (68 Enterobacteriaceae) was found to be 1 µg/mL. Also, the “MIC relative to MIC for E. coli ATCC 25922” value against CPE (n=36) is reported as at most 4 fold; in test [3] it was at most 2 fold. For the same molecule, in test [4] (10 A. baumannii), the “relative activity among analogues” value was “lowest MICs”. The “change of MIC with elevated efflux” value in the test on P. aeruginosa (n=20) (P. aeruginosa isolates with elevated efflux) was “not raised”.

Source of the values: US10815237B2, “Antimicrobials and methods of making and using same” (BIOVERSYS AG, priority 2016, dated 2020).
